According to PMC6412891, “Synthesis and Biological Evaluation of Novel Thiazolyl-Coumarin Derivatives as Potent Histone Deacetylase Inhibitors with Antifibrotic Activity” (Molecules, 2019):

What was measured:
[1] = test system: HDACs HeLa cells nuclear extract; test: HDAC inhibitory activity, fluorometric kit, HeLa cell nuclear extract; format: biochemical, human; conditions: HeLa cell nuclear extract as HDAC source
HDAC1 human recombinant = molecular target: T1, HDAC1 human recombinant (Homo sapiens, UniProt Q13547); test: HDAC1 inhibitory activity, fluorometric kit; format: biochemical; conditions: Class I
T1 construct: purchased Enzo Life Science BML-AK511
T1 sequence (Q13547 whole entry): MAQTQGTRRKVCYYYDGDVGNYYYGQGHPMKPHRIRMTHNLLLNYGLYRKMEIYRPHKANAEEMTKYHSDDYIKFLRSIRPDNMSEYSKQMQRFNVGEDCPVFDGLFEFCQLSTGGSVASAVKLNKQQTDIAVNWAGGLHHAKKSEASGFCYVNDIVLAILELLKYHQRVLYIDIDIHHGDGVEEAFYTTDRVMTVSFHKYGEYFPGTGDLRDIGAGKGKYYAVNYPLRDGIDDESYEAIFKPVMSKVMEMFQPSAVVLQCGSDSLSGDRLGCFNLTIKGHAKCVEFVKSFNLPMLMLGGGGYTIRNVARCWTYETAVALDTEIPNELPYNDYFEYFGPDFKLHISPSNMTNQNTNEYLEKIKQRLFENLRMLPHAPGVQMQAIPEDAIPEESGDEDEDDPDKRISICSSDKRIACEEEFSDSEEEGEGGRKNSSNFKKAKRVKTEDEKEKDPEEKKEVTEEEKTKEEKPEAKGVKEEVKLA

[2] = test system: neonatal rat cardiac fibroblasts (CFs); test: FBS-induced cardiac fibroblast proliferation assay (Alamar Blue); format: cell-based; conditions: 10% FBS-induced CF proliferation, 48 h, read-out: Inhibition percentage of cell proliferation
[3] = Cytotoxicity assay (Alamar Blue) in cardiac fibroblasts; format: cell-based, rat; conditions: Sprague-Dawley, rat, primary neonatal rat cardiac fibroblasts (CFs), CFs treated for 48 h

Row | IC50 [1] | IC50 (HDAC1 human recombinant) | SMILES | inhibition at 1 µM [2] | inhibition at 5 µM [2] | inhibition at 10 µM [2] | CC50 at 48 h [3]
1 | 0.0667 ± 0.0029 µM | 0.0604 ± 0.0017 µM | O=C(CCCCC1CCSS1)Nc1nc(-c2cc3ccccc3oc2=O)cs1 (stereo not drawn) [Compound 5a, 5-[1,2]-Dithiolan-3-yl-N-[4-(2-oxo-2H-chromen-3-yl)-thiazol-2-yl]-pentanamide] | 57.3 ± 6.7% | 70.7 ± 7.1% | 92.8 ± 6.4% | 201 ± 20.3 µM
2 | 0.574 ± 0.0244 µM | 0.423 ± 0.0302 µM | O=C(Nc1nc(-c2cc3ccccc3oc2=O)cs1)c1ccc(O)c(O)c1 [Compound 6a] | 3 ± 3.9% | 35 ± 1.9% | 60.6 ± 1.9% | 140 ± 11.7 µM
3 | 6.1 ± 0.39 µM | 7.69 ± 0.328 µM | O=C(O)CCCCC(=O)Nc1nc(-c2cc3ccccc3oc2=O)cs1 [Compound 7a] | 0.5 ± 0.1% | 26.8 ± 5.9% | 45 ± 5.1% | 111 ± 4.4 µM
4 | 0.0669 ± 0.0018 µM | 0.0506 ± 0.0021 µM | O=C(CCCCC(=O)Nc1nc(-c2cc3ccccc3oc2=O)cs1)NO [Compound 8a, 5-[4-(2-Oxo-2H-chromen-3-yl)-thiazol-2-yl-carbamoyl]-N-hydroxypentanamide] | 59.4 ± 6.1% | 79.9 ± 9.7% | 94.4 ± 3.8% | 90.5 ± 5.1 µM
